These results are taken from patent US10800754B2, “Heterocyclic amide compound” (TAKEDA PHARMACEUTICAL COMPANY LIMITED, priority 2016, dated 2020).

SMILES strings stand for the structures.

In one experiment the target is T1, human PRS protein (Homo sapiens, UniProt P07814).
T1 construct: to construct His-Avi-hEPRS (998-1512) expression plasmid; His tag (N); Avi tag (N); TEV cleavage site (ENLYFQ/GS, encoded by forward primer hEPRS-TEV-NheF) (N); made in house; host or cells: E. coli BL21(DE3)
T1 sequence (P07814 998-1512): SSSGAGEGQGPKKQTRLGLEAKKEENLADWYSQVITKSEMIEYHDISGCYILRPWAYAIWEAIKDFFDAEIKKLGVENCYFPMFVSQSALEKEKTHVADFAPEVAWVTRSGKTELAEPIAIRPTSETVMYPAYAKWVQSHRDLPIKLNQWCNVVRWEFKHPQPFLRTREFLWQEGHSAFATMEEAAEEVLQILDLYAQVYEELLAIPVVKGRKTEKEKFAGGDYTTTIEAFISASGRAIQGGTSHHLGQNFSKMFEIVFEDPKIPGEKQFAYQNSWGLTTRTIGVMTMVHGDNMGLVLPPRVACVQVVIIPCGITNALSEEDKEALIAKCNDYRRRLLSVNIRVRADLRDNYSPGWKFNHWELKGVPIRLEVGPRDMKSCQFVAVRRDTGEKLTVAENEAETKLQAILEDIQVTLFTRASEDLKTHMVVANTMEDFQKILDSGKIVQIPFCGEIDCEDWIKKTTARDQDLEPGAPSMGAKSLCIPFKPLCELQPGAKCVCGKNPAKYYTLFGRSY
The experiment is described as follows: PRS inhibitory activity (ATP/[32P]pyrophosphate exchange enzyme reaction). The class given is biochemical. The conditions noted are these: 300 nM test compound; recombinant human PRS (EPRS 998-1512); read-out: inhibitory rate (%) of PRS. In outline: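 His-Avi-tagged human EPRS catalytic domain (998-1512), E. coli-expressed, was preincubated 60 min with compound (enzyme added as 40 nM solution) in Tris pH 7.5, KCl, DTT, Tween 20 and MgCl2. The substrate solution contained 300 μM ATP, 160 μM L-proline, and 400 μM pyrophosphate with [32P]pyrophosphate; reaction ran 30 min at room temperature. Charcoal-captured label was counted, with enzyme-free wells taken as 100% inhibition.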

The subject of experiment [1] is human ovarian cancer cell A2780. The experiment is described as follows: proliferation inhibitory activity against A2780 cells (CellTiter-Glo). Type of experiment: cell-based. Particulars: A2780, 72 h, 1 μM test compound, 3 days of culture, read-out: proliferation inhibitory rate (%) of A2780 cells. Here is the method:
The proliferation inhibitory activity of the compound of the present invention against human ovarian cancer cell A2780 was evaluated by the following method.
Human ovarian cancer cells A2780 were seeded in a 384 well culture plate at 1000 cells in 30 μL of medium per well by using RPMI-1640 medium (Wako Pure Chemical Industries, Ltd.) containing 10% fetal bovine serum and penicillin/streptomycin. The next day, 10 μL of RPMI-1640 medium containing the test compound was added to the cells. After 3 days of culture, 20 μL of CellTiter-Glo Luminescent Cell Viability Assay solution (Promega, Fitchburg, Wis., US) was added. The luminescence signal was measured using EnVision (PerkinElmer, Waltham, Mass., US) and the inhibitory rate (%) of the test compound was calculated with a well free of seeding of cell as 100% inhibition.

Consider `N#C[C@@]1(C2CC2)CCN(c2ccnc(NC(=O)Cc3cccc(-c4cnn(C(F)F)c4)c3)c2)C1=O` [Example 44, N-(4-((3S)-3-cyano-3-cyclopropyl-2-oxopyrrolidin-1-yl)pyridin-2-yl)-2-(3-(1-(difluoromethyl)-1H-pyrazol-4-yl)phenyl)acetamide], for which the inhibition at 0.3 µM on human PRS protein was found to be 100%. Further, the inhibition at 1 µM in experiment [1] amounted to 86%.

In the case of `Cc1ncc(-c2cccc(CC(=O)Nc3cc(N4CC[C@@](C#N)(C5CC5)C4=O)ccn3)c2)s1` [Example 45, N-(4-((3S)-3-cyano-3-cyclopropyl-2-oxopyrrolidin-1-yl)pyridin-2-yl)-2-(3-(2-methyl-1,3-thiazol-5-yl)phenyl)acetamide], at human PRS protein, the inhibition at 0.3 µM is 97%. The inhibition at 1 µM in experiment [1] is 76%.

Consider `Cn1cc(-c2cccc(CC(=O)Nc3cc(N4CC[C@@](C#N)(C5CC5)C4=O)ccn3)c2)nn1` [Example 47, N-(4-((3S)-3-cyano-3-cyclopropyl-2-oxopyrrolidin-1-yl)pyridin-2-yl)-2-(3-(1-methyl-1H-1,2,3-triazol-4-yl)phenyl)acetamide], for which the inhibition at 0.3 µM on human PRS protein amounted to 99%. The inhibition at 1 µM in experiment [1] stood at 66%.

Take `Cc1cc(-c2cccc(CC(=O)Nc3cc(N4CC[C@@](C#N)(C5CC5)C4=O)ccn3)c2)sn1` [Example 48, N-(4-((3S)-3-cyano-3-cyclopropyl-2-oxopyrrolidin-1-yl)pyridin-2-yl)-2-(3-(3-methyl-1,2-thiazol-5-yl)phenyl)acetamide]: the inhibition at 0.3 µM at human PRS protein was found to be 100%. The inhibition at 1 µM in experiment [1] worked out at 61%.

`N#C[C@@]1(C2CC2)CCN(c2ccnc(NC(=O)Cc3cccc(-c4cnsc4)c3)c2)C1=O` [Example 50, N-(4-((3S)-3-cyano-3-cyclopropyl-2-oxopyrrolidin-1-yl)pyridin-2-yl)-2-(3-(1,2-thiazol-4-yl)phenyl)acetamide]: on human PRS protein, the inhibition at 0.3 µM came to 99%. In addition, the inhibition at 1 µM in experiment [1] was found to be 78%.

Consider `Cn1ccc(-c2cccc(CC(=O)Nc3cc(N4CC[C@@](C#N)(C5CC5)C4=O)ccn3)c2)cc1=O` [Example 51, N-(4-((3S)-3-cyano-3-cyclopropyl-2-oxopyrrolidin-1-yl)pyridin-2-yl)-2-(3-(1-methyl-2-oxo-1,2-dihydropyridin-4-yl)phenyl)acetamide], for which the inhibition at 0.3 µM at human PRS protein was found to be 99%. Besides, the inhibition at 1 µM in experiment [1] is 52%.

As to `Cc1cc(N2CC[C@@](C#N)(C3CC3)C2=O)cc(NC(=O)Cc2cc(F)cc(-c3cnn(C)c3)c2)n1` [Example 52, N-(4-((3S)-3-cyano-3-cyclopropyl-2-oxopyrrolidin-1-yl)-6-methylpyridin-2-yl)-2-(3-fluoro-5-(1-methyl-1H-pyrazol-4-yl)phenyl)acetamide], the inhibition at 0.3 µM on human PRS protein amounted to 99%. For the same compound, the inhibition at 1 µM in experiment [1] amounted to 97%.

For `Cn1cc(-c2ccc(F)c(CC(=O)Nc3cc(N4CC[C@@](C#N)(C5CC5)C4=O)ccn3)c2)cn1` [Example 53, N-(4-((3S)-3-cyano-3-cyclopropyl-2-oxopyrrolidin-1-yl)pyridin-2-yl)-2-(2-fluoro-5-(1-methyl-1H-pyrazol-4-yl)phenyl)acetamide], the inhibition at 0.3 µM on human PRS protein was found to be 100%. For the same compound, in experiment [1], the inhibition at 1 µM stood at 82%.

Consider `CC(C)(C)OC(=O)n1cc(-c2cccc(CC(=O)Nc3cc(N4CC[C@@](C#N)(C5CC5)C4=O)ccn3)c2)cn1` [Example 55, tert-butyl 4-(3-(2-((4-((3S)-3-cyano-3-cyclopropyl-2-oxopyrrolidin-1-yl)pyridin-2-yl)amino)-2-oxoethyl)phenyl)-1H-pyrazole-1-carboxylate], for which the inhibition at 0.3 µM on human PRS protein came to 99%. In experiment [1], the inhibition at 1 µM came out at 67%.

Consider `N#C[C@@]1(C2CC2)CCN(c2ccnc(NC(=O)Cc3cccc(-c4cn[nH]c4)c3)c2)C1=O` [Example 56, N-(4-((3S)-3-cyano-3-cyclopropyl-2-oxopyrrolidin-1-yl)pyridin-2-yl)-2-(3-(1H-pyrazol-4-yl)phenyl)acetamide], for which the inhibition at 0.3 µM at human PRS protein was found to be 98%. Further, in experiment [1], the inhibition at 1 µM was found to be 64%.

As for `Cc1cc(N2CC[C@@](C#N)(C3CC3)C2=O)cc(NC(=O)Cc2cc(F)cc(-c3cn(C)nn3)c2)n1` [Example 57, N-(4-((3S)-3-cyano-3-cyclopropyl-2-oxopyrrolidin-1-yl)-6-methylpyridin-2-yl)-2-(3-fluoro-5-(1-methyl-1H-1,2,3-triazol-4-yl)phenyl)acetamide], the inhibition at 0.3 µM on human PRS protein worked out at 99%. The inhibition at 1 µM in experiment [1] came to 94%.

Consider `N#C[C@@]1(C2CC2)CCN(c2ccnc(NC(=O)Cc3cccc(-c4cnn(CC(F)(F)F)c4)c3)c2)C1=O` [Example 58, N-(4-((3S)-3-cyano-3-cyclopropyl-2-oxopyrrolidin-1-yl)pyridin-2-yl)-2-(3-(1-(2,2,2-trifluoroethyl)-1H-pyrazol-4-yl)phenyl)acetamide], for which the inhibition at 0.3 µM on human PRS protein was 99%. For the same compound, the inhibition at 1 µM in experiment [1] was found to be 75%.

Consider `Cc1cc(N2CC[C@@](C#N)(C3CC3)C2=O)cc(NC(=O)Cc2cc(-c3cnn(C)c3)cc(C(F)(F)F)c2)n1` [Example 59, N-(4-((3S)-3-cyano-3-cyclopropyl-2-oxopyrrolidin-1-yl)-6-methylpyridin-2-yl)-2-(3-(1-methyl-1H-pyrazol-4-yl)-5-(trifluoromethyl)-phenyl)acetamide], for which the inhibition at 0.3 µM at human PRS protein was 93%. The inhibition at 1 µM in experiment [1] was determined as 51%.

Take `Cc1cc(N2CC[C@@](C#N)(C3CC3)C2=O)cc(NC(=O)Cc2cc(F)cc(-c3ccc(=O)n(C)c3)c2)n1` [Example 60, N-(4-((3S)-3-cyano-3-cyclopropyl-2-oxopyrrolidin-1-yl)-6-methylpyridin-2-yl)-2-(3-fluoro-5-(1-methyl-6-oxo-1,6-dihydropyridin-3-yl)phenyl)acetamide]: the inhibition at 0.3 µM at human PRS protein amounted to 99%. The inhibition at 1 µM in experiment [1] is 97%.

`Cn1cc(-c2cccc(CC(=O)Nc3cc(N4CC[C@@](C#N)(C5CC5)C4=O)cc(F)n3)c2)cn1` [Example 63, N-(4-((3S)-3-cyano-3-cyclopropyl-2-oxopyrrolidin-1-yl)-6-fluoropyridin-2-yl)-2-(3-(1-methyl-1H-pyrazol-4-yl)phenyl)acetamide]: the inhibition at 0.3 µM at human PRS protein turned out to be 99%. The inhibition at 1 µM in experiment [1] came out at 88%.

As to `N#C[C@@]1(C2CC2)CCN(c2ccnc(NC(=O)Cc3cccc(-c4cnn(CC5CC5)c4)c3)c2)C1=O` [Example 64, N-(4-((3S)-3-cyano-3-cyclopropyl-2-oxopyrrolidin-1-yl)pyridin-2-yl)-2-(3-(1-(cyclopropylmethyl)-1H-pyrazol-4-yl)phenyl)acetamide], the inhibition at 0.3 µM on human PRS protein stood at 99%. Moreover, the inhibition at 1 µM in experiment [1] turned out to be 79%.

As to `Cn1cc(-c2cccc(CC(=O)Nc3cc(N4CC[C@@](C#N)(C5CC5)C4=O)cc(C(F)F)n3)c2)cn1` [Example 65, N-(4-((3S)-3-cyano-3-cyclopropyl-2-oxopyrrolidin-1-yl)-6-(difluoromethyl)pyridin-2-yl)-2-(3-(1-methyl-1H-pyrazol-4-yl)phenyl)acetamide], the inhibition at 0.3 µM on human PRS protein stood at 95%. Further, the inhibition at 1 µM in experiment [1] worked out at 75%.

`N#C[C@@]1(C2CC2)CCN(c2ccnc(NC(=O)Cc3cccc(-c4cnn(C5CCCC5)c4)c3)c2)C1=O` [Example 66, N-(4-((3S)-3-cyano-3-cyclopropyl-2-oxopyrrolidin-1-yl)pyridin-2-yl)-2-(3-(1-cyclopentyl-1H-pyrazol-4-yl)phenyl)acetamide]: on human PRS protein, the inhibition at 0.3 µM is 99%. Further, the inhibition at 1 µM in experiment [1] was determined as 80%.

Consider `N#C[C@@]1(C2CC2)CCN(c2ccnc(NC(=O)Cc3cccc(-c4cnn(CCO)c4)c3)c2)C1=O` [Example 67, N-(4-((3S)-3-cyano-3-cyclopropyl-2-oxopyrrolidin-1-yl)pyridin-2-yl)-2-(3-(1-(2-hydroxyethyl)-1H-pyrazol-4-yl)phenyl)acetamide], for which the inhibition at 0.3 µM on human PRS protein turned out to be 100%. Also, the inhibition at 1 µM in experiment [1] was found to be 77%.

Regarding `CC(C)Cn1cc(-c2cccc(CC(=O)Nc3cc(N4CC[C@@](C#N)(C5CC5)C4=O)ccn3)c2)cn1` [Example 68, N-(4-((3S)-3-cyano-3-cyclopropyl-2-oxopyrrolidin-1-yl)pyridin-2-yl)-2-(3-(1-isobutyl-1H-pyrazol-4-yl)phenyl)acetamide], the inhibition at 0.3 µM at human PRS protein amounted to 98%. Moreover, in experiment [1], the inhibition at 1 µM came to 51%.
